The experiment deals with wild-type human cardiac sodium channel, hNav1.5 (Homo sapiens, UniProt Q14524). The experiment in a line: Late INa screening assay (automated whole cell patch clamp, PatchXpress). The format is cell-based. As to conditions: HEK293 cells expressing hNav1.5, late INa generated with 10 μM Tefluthrin (or 50 nM ATX II); for inhibition at 1 µM: compound at 1 μM, read-out: LateINa_1 uM (percent block of late INa); for inhibition at 10 µM: compound at 10 μM, read-out: LateINa_10 uM (percent block of late INa). As to the method:
The late sodium current (Late INa) and peak sodium current (Peak INa) assays are performed on an automated electrophysiology platform, PatchXpress 7000A (MDS Analytical Technologies, Sunnyvale, Calif.), which uses the whole cell patch clamp technique to measure currents through the cell membrane of up to 16 cells at a time. The assay uses an HEK293 (human embryonic kidney) cell line heterologously expressing the wild-type human cardiac sodium channel, hNav1.5, purchased from Millipore (Billerica, Mass.). No beta subunits were coexpressed with the Na channel alpha subunit. Cells are maintained with standard tissue culture procedures and stable channel expression is maintained with 400 μg/ml Geneticin in the culture medium. […] Experiments are carried out at 24-27° C.
For both the Late INa and Peak INa assays, series resistance compensation is set to 50% and whole-cell compensation is performed automatically. […] Currents through open sodium channels are automatically recorded and stored in the DataXpress2 database (MDS Analytical Technologies, Sunnyvale, Calif.). Analysis is performed using DataXpress2 analysis software and data are compiled in Excel.
Compound stocks are routinely made in glass vials to 10 mM in dimethyl sulfoxide (DMSO). In some cases, when compounds are not soluble in DMSO, they are made in 100% ethanol. Stocks are sonicated as necessary. The extracellular solution for screening Late INa is composed of: 140 mM NaCl, 4 mM KCl, 1.8 mM CaCl2, 0.75 mM MgCl2, and 5 mM HEPES with pH adjusted to 7.4 using NaOH. The extracellular solution for screening Peak INa is composed of: 20 mM NaCl, 120 mM N-methyl-D glucamine, 4 mM KCl, 1.8 mM CaCl2, 0.75 mM MgCl2, and 5 mM HEPES with pH adjusted to 7.4 using HCl. The intracellular solution used to perfuse the inside of the cells for both the Late INa and Peak INa assays contains: 120 mM CsF, 20 mM CsCl, 5 mM EGTA, 5 mM HEPES and pH adjusted to 7.4 with CsOH. […] The 0Na extracellular solution used at the end of each experiment for the Late INa and Peak INa assays to measure baseline current contains: 140 mM N-methyl-D-glucamine; 4 mM KCl; 1.8 mM CaCl2; 0.75 mM MgCl2; 5 mM HEPES and pH was adjusted to 7.4 with HCl.
For the Late INa assay, sodium channels are activated every 10 seconds (0.1 Hz) by depolarizing the cell membrane to −20 mV for 250 milliseconds (ms) from a holding potential of −120 mV. In response to a −20 mV voltage step, typical Nav1.5 sodium currents activate rapidly to a peak negative current and then inactivate nearly completely within […].
All compounds are tested to determine their activity in blocking the late sodium current. Late INa current is generated by adding 10 μM Tefluthrin (pyrethroid) to the extracellular solution while recording Na currents For some experiments, 50 nM ATX II (sea anemone toxin), another late INa activator, was used to generate the late component. […] After establishing the whole cell recording configuration, late INa activators are added to each well 4 times over a 16-17 minute period so that the late component of the Na current reaches a stable value. […] Measurements are made at the end of exposure to the third compound addition and values are normalized to the current level when all Na^+ is removed from the extracellular solution after two additions of 0Na-ECF. Results are reported as percent block of late INa
(In general: The patch-clamp technique gives a direct electrical read-out from membranes.)

wild-type human cardiac sodium channel, hNav1.5, sequence (Q14524 whole entry): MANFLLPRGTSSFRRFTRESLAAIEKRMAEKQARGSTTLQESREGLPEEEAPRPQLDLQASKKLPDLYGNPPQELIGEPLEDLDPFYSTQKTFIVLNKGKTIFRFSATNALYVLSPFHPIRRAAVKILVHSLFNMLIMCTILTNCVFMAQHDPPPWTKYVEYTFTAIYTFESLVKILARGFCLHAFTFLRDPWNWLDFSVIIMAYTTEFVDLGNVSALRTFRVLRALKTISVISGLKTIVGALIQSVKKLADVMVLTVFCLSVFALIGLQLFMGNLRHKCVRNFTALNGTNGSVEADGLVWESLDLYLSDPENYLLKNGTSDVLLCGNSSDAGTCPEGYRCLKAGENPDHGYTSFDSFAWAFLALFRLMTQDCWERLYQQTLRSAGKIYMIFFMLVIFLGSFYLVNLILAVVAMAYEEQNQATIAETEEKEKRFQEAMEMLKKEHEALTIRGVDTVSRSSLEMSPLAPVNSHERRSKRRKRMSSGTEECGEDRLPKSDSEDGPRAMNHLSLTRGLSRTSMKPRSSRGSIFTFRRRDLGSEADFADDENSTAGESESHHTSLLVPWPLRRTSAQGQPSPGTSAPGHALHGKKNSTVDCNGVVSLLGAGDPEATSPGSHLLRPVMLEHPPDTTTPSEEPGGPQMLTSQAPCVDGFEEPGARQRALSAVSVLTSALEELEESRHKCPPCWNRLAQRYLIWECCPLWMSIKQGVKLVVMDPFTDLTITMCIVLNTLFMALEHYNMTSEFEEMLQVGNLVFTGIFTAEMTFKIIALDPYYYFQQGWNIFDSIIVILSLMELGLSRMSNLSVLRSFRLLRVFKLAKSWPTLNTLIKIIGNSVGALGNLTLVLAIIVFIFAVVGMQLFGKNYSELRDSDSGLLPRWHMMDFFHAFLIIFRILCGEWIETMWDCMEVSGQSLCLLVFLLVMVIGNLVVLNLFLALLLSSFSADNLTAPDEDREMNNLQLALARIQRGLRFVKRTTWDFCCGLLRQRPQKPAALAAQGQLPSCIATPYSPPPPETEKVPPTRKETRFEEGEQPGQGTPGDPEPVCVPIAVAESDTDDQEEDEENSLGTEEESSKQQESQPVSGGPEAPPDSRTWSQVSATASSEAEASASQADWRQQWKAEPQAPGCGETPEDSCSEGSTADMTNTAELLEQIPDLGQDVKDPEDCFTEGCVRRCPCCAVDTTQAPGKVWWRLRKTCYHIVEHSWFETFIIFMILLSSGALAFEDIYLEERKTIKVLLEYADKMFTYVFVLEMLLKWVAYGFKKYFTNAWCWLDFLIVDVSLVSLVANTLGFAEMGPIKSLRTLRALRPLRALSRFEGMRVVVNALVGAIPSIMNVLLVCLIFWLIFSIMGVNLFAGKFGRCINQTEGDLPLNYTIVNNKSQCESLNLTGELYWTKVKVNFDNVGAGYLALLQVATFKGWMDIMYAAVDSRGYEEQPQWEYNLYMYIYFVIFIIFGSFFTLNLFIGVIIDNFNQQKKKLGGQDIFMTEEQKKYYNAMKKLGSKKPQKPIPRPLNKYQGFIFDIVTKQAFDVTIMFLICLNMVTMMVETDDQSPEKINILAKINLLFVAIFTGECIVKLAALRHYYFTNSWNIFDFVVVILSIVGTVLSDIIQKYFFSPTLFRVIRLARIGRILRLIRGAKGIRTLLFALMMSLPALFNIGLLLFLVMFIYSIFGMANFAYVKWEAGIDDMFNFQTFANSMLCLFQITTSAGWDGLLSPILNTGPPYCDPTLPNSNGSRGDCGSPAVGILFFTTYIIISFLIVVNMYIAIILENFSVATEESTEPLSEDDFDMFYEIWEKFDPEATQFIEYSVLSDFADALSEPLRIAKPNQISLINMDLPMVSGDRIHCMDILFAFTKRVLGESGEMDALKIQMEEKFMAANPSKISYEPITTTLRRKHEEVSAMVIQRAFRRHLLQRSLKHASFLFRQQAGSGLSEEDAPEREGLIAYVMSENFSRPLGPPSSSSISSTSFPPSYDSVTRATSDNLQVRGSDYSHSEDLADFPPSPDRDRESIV

`FC(F)(F)c1nnc2ccc(-c3ccc(Oc4ccc(Cl)cc4)cc3)cn12` [BHN-65, 6-[4-(4-chlorophenoxy)phenyl]-3-(trifluoromethyl)[1,2,4]triazolo[4,3-a]pyridine]: the inhibition at 1 µM amounted to 55.6% and the inhibition at 10 µM is 85.7%.

Turning to `CC(C)(C#N)c1ccc(-c2ccc3nnc(C(F)(F)F)n3c2)cc1` [BHN-66, 2-methyl-2-{4-[3-(trifluoromethyl)[1,2,4]triazolo[4,3-a]pyridin-6-yl]phenyl}propanenitrile], the inhibition at 1 µM came to 33.2% and the inhibition at 10 µM was 70.7%.

As for `CC(C)S(=O)(=O)c1ccc(-c2ccc3nnc(C(F)(F)F)n3c2)cc1` [BHN-68, 6-[4-(propan-2-ylsulfonyl)phenyl]-3-(trifluoromethyl)[1,2,4]triazolo[4,3-a]pyridine], the inhibition at 10 µM turned out to be 22%.

`Cc1nnc2c(N)cc(-c3ccc(OC(F)(F)F)cc3)cn12` [BHN-69, 3-methyl-6-[4-(trifluoromethoxy)phenyl][1,2,4]triazolo[4,3-a]pyridin-8-amine]: the inhibition at 10 µM came to 32.1%.

For `Cc1cc(OC(F)(F)F)ccc1-c1cc(N)c2nnc(C)n2c1` [BHN-70, 3-methyl-6-[2-methyl-4-(trifluoromethoxy)phenyl][1,2,4]triazolo[4,3-a]pyridin-8-amine], the inhibition at 10 µM came out at 40.4%.

With `Cc1nnc(-c2ccc(-c3ccc4nnc(C(F)(F)F)n4c3)cc2)o1` [BHN-71, 6-[4-(5-methyl-1,3,4-oxadiazol-2-yl)phenyl]-3-(trifluoromethyl)[1,2,4]triazolo[4,3-a]pyridine], the inhibition at 10 µM came out at 20.5%.

Take `FC(F)(F)Oc1ccc(-c2ccc3nnc(C(F)(F)F)n3c2)cc1CN1CCOCC1` [BHN-72, 6-[3-(morpholin-4-ylmethyl)-4-(trifluoromethoxy)phenyl]-3-(trifluoromethyl)[1,2,4]triazolo[4,3-a]pyridine]: the inhibition at 10 µM was 26.7%.

With `NS(=O)(=O)c1ccc(-c2nnc3ccc(-c4ccc(OC(F)(F)F)cc4)cn23)cc1` [BHN-73, 4-{6-[4-(trifluoromethoxy)phenyl][1,2,4]triazolo[4,3-a]pyridin-3-yl}benzenesulfonamide], the inhibition at 10 µM was 17.5%.

With `COCC(F)(F)c1nnc2ccc(-c3ccc(OC(F)(F)F)cc3)cn12` [BHN-74, 3-(1,1-difluoro-2-methoxyethyl)-6-[4-(trifluoromethoxy)phenyl][1,2,4]triazolo[4,3-a]pyridine], the inhibition at 1 µM was determined as 46.9% and the inhibition at 10 µM came to 67%.

Regarding `CS(=O)(=O)Nc1ccc(-c2nnc3ccc(-c4ccc(OC(F)(F)F)cc4)cn23)cc1` [BHN-75, N-(4-{6-[4-(trifluoromethoxy)phenyl][1,2,4]triazolo[4,3-a]pyridin-3-yl}-phenyl)methanesulfonamide], the inhibition at 10 µM amounted to 30.1%.

As to `CC(=O)Nc1cc(-c2ccc(OC(F)(F)F)cc2C)cn2c(C)nnc12` [BHN-76, N-{3-methyl-6-[2-methyl-4-(trifluoromethoxy)phenyl][1,2,4]triazolo[4,3-a]pyridin-8-yl}acetamide], the inhibition at 10 µM came out at 31.9%.

Take `NC(=O)c1ccc(-c2nnc3ccc(-c4ccc(OC(F)(F)F)cc4)cn23)cc1` [BHN-79, 4-{6-[4-(trifluoromethoxy)phenyl][1,2,4]triazolo[4,3-a]pyridin-3-yl}benzamide]: the inhibition at 10 µM amounted to 19.3%.

Consider `CCOC(=O)c1cccc(-c2ccc3nnc(-c4cccc(C(=O)OCC)c4)n3c2)c1` [BHN-80, diethyl 3,3′-[1,2,4]triazolo[4,3-a]pyridine-3,6-diyldibenzoate], for which the inhibition at 10 µM was found to be 59%.

`CN1CCN(Cc2cc(-c3ccc4nnc(C(F)(F)F)n4c3)ccc2OC(F)(F)F)CC1` [BHN-81, 6-{3-[(4-methylpiperazin-1-yl)methyl]-4-(trifluoromethoxy)phenyl}-3-(trifluoromethyl)[1,2,4]triazolo[4,3-a]pyridine]: the inhibition at 10 µM came to 30.3%.

As for `Cn1cc(-c2nnc3ccc(-c4ccc(OC(F)(F)F)cc4)cn23)cn1` [BHN-82, 3-(1-methyl-1H-pyrazol-4-yl)-6-[4-(trifluoromethoxy)phenyl][1,2,4]triazolo[4,3-a]pyridine], the inhibition at 10 µM came to 38.9%.

In the case of `CN(C)Cc1cc(-c2ccc3nnc(C(F)(F)F)n3c2)ccc1OC(F)(F)F` [BHN-83, N,N-dimethyl-1-{2-(trifluoromethoxy)-5-[3-(trifluoromethyl)[1,2,4]triazolo[4,3-a]pyridin-6-yl]phenyl}methanamine], the inhibition at 10 µM came to 29.8%.

Consider `CCC(=O)Nc1cc(-c2ccc(OC(F)(F)F)cc2)cn2c(C)nnc12` [BHN-85, N-{3-methyl-6-[4-(trifluoromethoxy)phenyl][1,2,4]triazolo[4,3-a]pyridin-8-yl}propanamide], for which the inhibition at 10 µM was determined as 20.5%.

On to `CCOC(=O)c1ccc(-c2nnc3ccc(-c4ccc(OC(F)(F)F)cc4)cn23)cc1` [BHN-86, ethyl 4-{6-[4-(trifluoromethoxy)phenyl][1,2,4]triazolo[4,3-a]pyridin-3-yl}benzoate], for which the inhibition at 1 µM stood at 82.7% and the inhibition at 10 µM was determined as 86.9%.

As for `CCOC(=O)c1cccc(-c2nnc3ccc(-c4ccc(OC(F)(F)F)cc4)cn23)c1` [BHN-87, ethyl 3-{6-[4-(trifluoromethoxy)phenyl][1,2,4]triazolo[4,3-a]pyridin-3-yl}benzoate], the inhibition at 1 µM came out at 38.9% and the inhibition at 10 µM is 72.2%.

As for `FC(F)(F)c1nnc2ccc(-c3ccc(C4CC4)nc3)cn12` [BHN-88, 6-(6-cyclopropylpyridin-3-yl)-3-(trifluoromethyl)[1,2,4]triazolo[4,3-a]pyridine], the inhibition at 10 µM was determined as 36%.

With `FC(F)(F)c1nnc2ccc(-c3cnc(C4CC4)nc3)cn12` [BHN-89, 6-(2-cyclopropylpyrimidin-5-yl)-3-(trifluoromethyl)[1,2,4]triazolo[4,3-a]pyridine], the inhibition at 10 µM worked out at 20.5%.

As to `FC(F)(F)c1nnc2ccc(-c3ccc(C4CC4)cc3)cn12` [BHN-90, 6-(4-cyclopropylphenyl)-3-(trifluoromethyl)[1,2,4]triazolo[4,3-a]pyridine], the inhibition at 1 µM was found to be 63.4% and the inhibition at 10 µM stood at 74.9%.

Turning to `FC(F)(F)c1ccc(-c2ccc3nnc(C(F)(F)F)n3c2)cn1` [BHN-91, 3-(trifluoromethyl)-6-[6-(trifluoromethyl)pyridin-3-yl][1,2,4]triazolo[4,3-a]pyridine], the inhibition at 10 µM stood at 46.7%.

Consider `FC(F)(F)COc1ccc(-c2ccc3nnc(C(F)(F)F)n3c2)cn1` [BHN-92, 6-[6-(2,2,2-trifluoroethoxy)pyridin-3-yl]-3-(trifluoromethyl)[1,2,4]triazolo[4,3-a]pyridine], for which the inhibition at 1 µM stood at 63.5% and the inhibition at 10 µM came to 76.3%.

For `CS(=O)(=O)Nc1ccccc1-c1nnc2ccc(-c3ccc(OC(F)(F)F)cc3)cn12` [BHN-93, N-(2-{6-[4-(trifluoromethoxy)phenyl][1,2,4]triazolo[4,3-a]pyridin-3-yl}phenyl)methanesulfonamide], the inhibition at 10 µM was 21%.

Regarding `FC(F)(F)c1nnc2ccc(-c3ccc(Oc4cnccn4)cc3)cn12` [BHN-94, 6-[4-(pyrazin-2-yloxy)phenyl]-3-(trifluoromethyl)[1,2,4]triazolo[4,3-a]pyridine], the inhibition at 10 µM was determined as 27.5%.

As to `FC(F)(F)c1nnc2ccc(-c3nnc(C4CC4)s3)cn12` [BHN-96, 6-(5-cyclopropyl-1,3,4-thiadiazol-2-yl)-3-(trifluoromethyl)[1,2,4]triazolo[4,3-a]pyridine], the inhibition at 1 µM amounted to 20.3%.

As to `c1ccc(Oc2ccc(-c3ccc4nnnn4c3)cc2)cc1` [BHN-97, 6-(4-phenoxyphenyl)tetrazolo[1,5-a]pyridine], the inhibition at 1 µM amounted to 73.2%.

For the origin of these results see patent US8952034B2, “Fused heterocyclic compounds as ion channel modulators” (Gilead Sciences, Inc., priority 2009, dated 2015).
